Type in all cases: in vivo
Data set [1] relates to Johnsongrass (Sorghum halepense, SORHA). The experiment in a line: Pre-emerge greenhouse herbicide test, phytotoxicity rating. Particulars: 14 days after application, rating scale 0-100. The method in brief:
(§1)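 Visual 0–100 injury rating (100 = all plants dead) taken 14 days after treatment. Rates of 125–1000 g ai/ha in acetone, 187 l/ha, were sprayed onto soil one day post-sowing; pots were surface-watered to incorporate, then bottom-watered.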

The test system of data set [2] is barnyardgrass (Echinochloa crusgalli, ECHCG). Described as above. Particulars: 14 days after application, rating scale 0-100. The method in brief:
as §1

For data set [3], the system named is common ragweed (Ambrosia artemisiifolia L., AMBEL). The data set is described as above. Particulars: 14 days after application, rating scale 0-100. The method in brief:
as §1

Data set [4] concerns green foxtail (Setaria viridis, SETVI). The description is as above. Particulars: 14 days after application, rating scale 0-100. The method in brief:
as §1

In data set [5] the test system is ivyleaf morningglory (Ipomoea hederacea, IPOHE). Described as above. Particulars: 14 days after application, rating scale 0-100. The method in brief: as §1
Data set [6] relates to lambsquarters (Chenopodium album, CHEAL). Described as above. Particulars: 14 days after application, rating scale 0-100. The method in brief:
as §1

Data set [7] deals with large crabgrass (Digitaria sanguinalis, DIGSA). The description is as above. Particulars: 14 days after application, rating scale 0-100. The method in brief: as §1
Data set [8] concerns redroot pigweed (Amaranthus retroflexus, AMARE). The description is as above. Particulars: 14 days after application, rating scale 0-100. The method in brief:
as §1

For data set [9], the system named is sicklepod (Cassia obtusifolia, CASOB). Described as above. Particulars: 14 days after application, rating scale 0-100. The method in brief: as §1
In data set [10] the test system is velvetleaf (Abutilon theophrasti, ABUTH). Described as above. Particulars: 14 days after application, rating scale 0-100. The method in brief:
as §1

For data set [11], the system named is field corn (Zea mays L., var. Dekalb 535, CORN). The experiment in a line: Pre-emerge greenhouse test, crop damage rating. Particulars: 14 days after application, rating scale 0-100. The method in brief: as §1
The test system of data set [12] is upland rice (Oryza sp., var.Tebonnet, RICE). The experiment in a line: Pre-emerge greenhouse test, crop damage rating. Particulars: 14 days after application, rating scale 0-100. The method in brief: as §1
Data set [13] relates to soybean (Glycine max L., var. Pella 86, SOY). The experiment in a line: Pre-emerge greenhouse test, crop damage rating. On the set-up: key to SOY crop damage rating: 0 = no damage, 100 = complete death of all plants. Particulars: 14 days after application, rating scale 0-100. The method in brief:
as §1

The subject of data set [14] is common ragweed (Ambrosia artemisiifolia L., AMBEL). The data set is described as follows: Post-emerge greenhouse herbicide test, phytotoxicity rating. Particulars: 14 days after application, scale 0-100. The method in brief: (§2)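 Scores use a 0 (no damage) to 100 (complete kill) scale, taken 14 days after a foliar spray. Acetone solutions with 0.25% v/v non-ionic surfactant were applied by track sprayer at 187 l/ha and 63-1000 g ai/ha to bottom-watered 2-3 leaf plants.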

The subject of data set [15] is Johnsongrass (Sorghum halepense, SORHA). The data set is described as above. Particulars: 14 days after application, scale 0-100. The method in brief:
as §2

Data set [16] deals with barnyardgrass (Echinochloa crusgalli, ECHCG). The description is as above. Particulars: 14 days after application, scale 0-100. The method in brief:
as §2

Data set [17] deals with green foxtail (Setaria viridis, SETVI). The description is as above. Particulars: 14 days after application, scale 0-100. The method in brief: as §2
Data set [18] relates to ivyleaf morningglory (Ipomoea hederacea, IPOHE). The description is as above. Particulars: 14 days after application, scale 0-100. The method in brief:
as §2

For data set [19], the system named is lambsquarters (Chenopodium album, CHEAL). The description is as above. Particulars: 14 days after application, scale 0-100. The method in brief:
as §2

The test system of data set [20] is large crabgrass (Digitaria sanguinalis, DIGSA). Described as above. Particulars: 14 days after application, scale 0-100. The method in brief:
as §2

The test system of data set [21] is redroot pigweed (Amaranthus retroflexus, AMARE). Described as above. Particulars: 14 days after application, scale 0-100. The method in brief:
as §2

In data set [22] the test system is sicklepod (Cassia obtusifolia, CASOB). The data set is described as above. Particulars: 14 days after application, scale 0-100. The method in brief: as §2
The test system of data set [23] is velvetleaf (Abutilon theophrasti, ABUTH). The data set is described as above. Particulars: 14 days after application, scale 0-100. The method in brief:
as §2

The test system of data set [24] is field corn (Zea mays L., var. Dekalb 535, CORN). The experiment in a line: Post-emerge greenhouse test, crop damage rating. Particulars: 14 days after application, scale 0-100. The method in brief:
as §2

In data set [25] the test system is upland rice (Oryza sp., var.Tebonnet, RICE). The experiment in a line: Post-emerge greenhouse test, crop damage rating. Particulars: 14 days after application, scale 0-100. The method in brief:
as §2

The test system of data set [26] is soybean (Glycine max L., var. Pella 86, SOY). The data set is described as follows: Post-emerge greenhouse test, crop damage rating. On the set-up: key to crop damage rating SOY: 0-100 scale: 0 = no damage, 100 = complete death of all plants. Particulars: 14 days after application, scale 0-100. The method in brief: as §2
The next data set has as its system Broadleaf Weeds. The data set is described as follows: Pre-emergent application in combination with other herbicides, percent control of broadleaf weeds. The procedure: (§3) All plants were grown in 10 cm square plastic pots which were filled with a sandy loam soil mix. For preemerge tests, seeds were planted one day prior to application of the test compounds. Immediately after application, test units of the pre-emerge applications were watered at the soil surface to incorporate the test materials. Subsequently, these test units were bottom-watered.
(§4) All test compounds were dissolved in acetone and applied to the test units in a volume of 187 l/ha. […] Plants were arranged on a shelf so that the top of the canopy (post-emerge) or top of the soil surface (pre-emerge) was 40-45 cm below the nozzle. Pressurized air was used to force the test solution through the nozzle as it was mechanically advanced (via electrically driven chain drive) over the top of all test plants/pots. This application simulates a typical commercial field herbicide application.
(§5) At 14 days after application of the test materials, phytotoxicity ratings were recorded. A rating scale of 0-100 was used as previously described in Research Methods in Weed Science, 2nd edition, B. Truelove, Ed., Southern Weed Science Society, Auburn University, Auburn, Ala., 1977. Briefly, “0” corresponds to no damage and “100” corresponds to complete death of all plants in the test unit. This scale was used both to determine efficacy against weed species and damage to crop species. Herbicide activity data for various compounds of this invention, which are shown by compound number in Tables 1-9, are shown in Tables 13 and 14.
(§6) (Note: Weed species abbreviations are from the Composite List of Weeds published by the Weed Science Society of America, 1989.)
The following examples illustrate the utility of combinations of compounds of this invention and existing herbicides. The methods used are identical to those for the application of single compounds except the commercial formulations of existing herbicides were added to the spray mixture in the appropriate amounts before spraying. […]
(§7) Combination Example 2. Pre-emergent Application of Compound 9-1 with Dimethenamid

The next data set has as its system Grass Weeds. The experiment in a line: Pre-emergent application in combination with other herbicides, percent control of grass weeds. Particulars: 1121 g ai/ha. The procedure: as §3, §4, §5, §6
The following examples illustrate the utility of combinations of compounds of this invention and existing herbicides. The methods used are identical to those for the application of single compounds except the commercial formulations of existing herbicides were added to the spray mixture in the appropriate amounts before spraying.
Combination Example 1. Pre-emergent Application of Compound 9-1 with Metolachlor
as §7

The structures appear in SMILES notation.

Take `Nc1cccnc1Oc1cc(-n2c(=O)n3n(c2=S)CCCC3)c(F)cc1Cl` [Compound 8-42]: the SORHA phytotoxicity rating in data set [1] (Rate 125 g al/ha) was determined as 0; in [1] (Rate 250 g al/ha), 0i. Also, the ECHCG phytotoxicity rating in [2] (Rate 125 g al/ha) and in [2] (Rate 250 g al/ha) was 0 throughout. For the same compound, the AMBEL phytotoxicity rating in [3] (Rate 125 g al/ha) was determined as 0; in [3] (Rate 250 g al/ha), 30. For the same compound, the SETVI phytotoxicity rating in data set [4] (Rate 125 g al/ha) and in data set [4] (Rate 250 g al/ha) was 0 throughout. Also, the IPOHE phytotoxicity rating in data set [5] (Rate 125 g al/ha) turned out to be 30; in data set [5] (Rate 250 g al/ha), 50. Also, the CHEAL phytotoxicity rating worked out at 80 in [6] (Rate 125 g al/ha) and 100 in data set [6] (Rate 250 g al/ha). For the same compound, the DIGSA phytotoxicity rating in [7] (Rate 125 g al/ha) and in [7] (Rate 250 g al/ha) was 0 each time. Also, the AMARE phytotoxicity rating in [8] (Rate 125 g al/ha) and in [8] (Rate 250 g al/ha) was 100 in each case. Further, the CASOB phytotoxicity rating in [9] (Rate 125 g al/ha) stood at 100; in data set [9] (Rate 250 g al/ha) it was 80. Moreover, the ABUTH phytotoxicity rating in data set [10] (Rate 125 g al/ha) and in data set [10] (Rate 250 g al/ha) was 100 each time. The “CORN crop damage rating” value in data set [11] (Rate 125 g al/ha) and in data set [11] (Rate 250 g al/ha) was 0 throughout. Moreover, the “RICE crop damage rating” value in data set [12] (Rate 125 g al/ha) and in data set [12] (Rate 250 g al/ha) was 0 in each case. Further, the “SOY crop damage rating” value in data set [13] (Rate 125 g al/ha) is recorded as 0; in data set [13] (Rate 250 g al/ha), 20. In addition, the “phytotoxicity rating AMBEL” value came out at 40 in [14] (rate 63 g ai/ha) and 90 in data set [14] (rate 250 g ai/ha). For the same compound, the “phytotoxicity rating SORHA” value in data set [15] (rate 63 g ai/ha) and in data set [15] (rate 250 g ai/ha) was 0 each time. The “phytotoxicity rating ECHCG” value in [16] (rate 63 g ai/ha) and in data set [16] (rate 250 g ai/ha) was 0 each time. In addition, the “phytotoxicity rating SETVI” value in [17] (rate 63 g ai/ha) and in data set [17] (rate 250 g ai/ha) was 0 throughout. Also, the results for the “phytotoxicity rating IPOHE” value in data set [18] (rate 63 g ai/ha) and in data set [18] (rate 250 g ai/ha) were 60 and 70, respectively. Also, the “phytotoxicity rating CHEAL” value was 50 in data set [19] (rate 63 g ai/ha) and 80 in data set [19] (rate 250 g ai/ha). Also, the “phytotoxicity rating DIGSA” value in data set [20] (rate 63 g ai/ha) and in data set [20] (rate 250 g ai/ha) was 0 each time. Further, the figures for the “phytotoxicity rating AMARE” value in [21] (rate 63 g ai/ha) and in [21] (rate 250 g ai/ha) were 50 and 95, respectively. For the same compound, the “phytotoxicity rating CASOB” value in data set [22] (rate 63 g ai/ha) and in [22] (rate 250 g ai/ha) was 0 in each case. The “phytotoxicity rating ABUTH” value in data set [23] (rate 63 g ai/ha) and in data set [23] (rate 250 g ai/ha) was 100 in each case. Further, the “crop damage rating CORN” value in data set [24] (rate 63 g ai/ha) and in data set [24] (rate 250 g ai/ha) was 0 each time. The “crop damage rating RICE” value in data set [25] (rate 63 g ai/ha) and in [25] (rate 250 g ai/ha) was 0 each time. The “crop damage rating SOY” value came to 20 in data set [26] (rate 63 g ai/ha) and 60 in [26] (rate 250 g ai/ha).
In the case of `COCC(C)N(C(=O)CCl)c1c(C)csc1C` (stereo not drawn) [Dimethenamid, reference compound], in the data set on Broadleaf Weeds (520 g ai/ha), the “Percent Control of Broadleaf Weeds ABUTH” value amounted to 40%, the “Percent Control of Broadleaf Weeds AMARE” value was determined as 100%, the “Percent Control of Broadleaf Weeds AMBEL” value amounted to 40% and the “Percent Control of Broadleaf Weeds CASOB” value was found to be 40%. Moreover, in the data set with Broadleaf Weeds (520 g ai/ha), the “Percent Control of Broadleaf Weeds CHEAL” value is 30% and the “Percent Control of Broadleaf Weeds IPOHE” value was found to be 0%. Besides, in the data set on Grass Weeds (Combination Example 2), the “Percent Control of Grass Weeds DIGSA” value is recorded as 100%, the “Percent Control of Grass Weeds ECHCG” value came to 100%, the “Percent Control of Grass Weeds SETVI” value is recorded as 100% and the “Percent Control of Grass Weeds SORHA” value is recorded as 100%.
In the case of `CCc1cccc(C)c1N(C(=O)CCl)C(C)COC` (stereo not drawn) [Metolachlor, reference compound], in the data set on Broadleaf Weeds (1121 g ai/ha), the “Percent Control of Broadleaf Weeds ABUTH” value came out at 20%, the “Percent Control of Broadleaf Weeds AMARE” value is reported as 100%, the “Percent Control of Broadleaf Weeds AMBEL” value was found to be 30% and the “Percent Control of Broadleaf Weeds CASOB” value is 10%. For the same compound, in the data set on Broadleaf Weeds (1121 g ai/ha), the “Percent Control of Broadleaf Weeds CHEAL” value was 90% and the “Percent Control of Broadleaf Weeds IPOHE” value came to 20%. In the data set with Grass Weeds, the “Percent Control of Grass Weeds DIGSA” value is 100%, the “Percent Control of Grass Weeds ECHCG” value amounted to 100%, the “Percent Control of Grass Weeds SETVI” value came to 100% and the “Percent Control of Grass Weeds SORHA” value came out at 100%.

(Values after US6479435B1, “Diaryl ethers and processes for their preparation and herbicidal and desiccant compositions containing them” (ISK Americas Incorporated, priority 1997, dated 2002).)
